# Measurements published in US12398154B2, “Azaquinazoline pan-KRas inhibitors” (Mirati Therapeutics, Inc., priority 2020, dated 2025).
# Experiments:
# [1] = tested on: phospho-ERK in AsPC-1 (G12D) cells; assay: Inhibition of KRas-mediated phosphorylation of ERK (in-cell western); type: cell-based; conditions: Homo sapiens, ASPC1, 3 h, 3 hours compound, phospho-ERK normalized to GAPDH
# Method in brief: (§1)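 Cells were treated with compound for 3 hours (0.5% DMSO final), then fixed with formaldehyde and permeabilized with ice-cold methanol. Phospho-ERK (Thr202/Tyr204) was detected by antibody and normalized to GAPDH per well, expressed as percent of DMSO control, and IC50 obtained by 4-parameter fit.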
# [2] = tested on: phospho-ERK in NCI-H460 (Q61H) cells; assay: as above; type: cell-based; conditions: Homo sapiens, NCI-H460, 3 h, 3 hours compound, phospho-ERK normalized to GAPDH
# Method in brief: as §1
# [3] = tested on: phospho-ERK in NCI-H727 (G12V) cells; assay: as above; type: cell-based; conditions: Homo sapiens, NCI-H727, 3 h, 3 hours compound, phospho-ERK normalized to GAPDH
# Method in brief: as §1
# [4] = target: KRas G12D (Homo sapiens, UniProt P01116, G12D); assay: biochemical;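 also: TR-FRET displacement binding assay on KRas, read after a one-hour incubation at room temperature, IC50 fitted from percent-of-control values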
# Sequence of KRas G12D (P01116 1-169 isoform P01116-2 G12D): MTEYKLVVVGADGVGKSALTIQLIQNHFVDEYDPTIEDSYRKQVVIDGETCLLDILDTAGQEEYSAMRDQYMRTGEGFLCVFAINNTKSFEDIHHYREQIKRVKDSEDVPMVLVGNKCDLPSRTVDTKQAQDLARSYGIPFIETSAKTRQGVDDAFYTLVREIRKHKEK
# Procedure: (§2) The ability of a compound to bind to KRas was measured using a TR-FRET displacement assay. […] After a 60-minute incubation at room temperature, the reaction was measured using a BMG LABTECH CLARIO star Plus via TR-FRET. […] The POC values were fit to a 4-parameter IC50 equation and the IC50 value reported.
# [5] = target: KRas G12V (Homo sapiens, UniProt P01116, G12V); assay: biochemical;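 also: KRas binding measured by TR-FRET displacement at room temperature, IC50 fitted from percent of control values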
# Sequence of KRas G12V (P01116 1-169 isoform P01116-2 G12V): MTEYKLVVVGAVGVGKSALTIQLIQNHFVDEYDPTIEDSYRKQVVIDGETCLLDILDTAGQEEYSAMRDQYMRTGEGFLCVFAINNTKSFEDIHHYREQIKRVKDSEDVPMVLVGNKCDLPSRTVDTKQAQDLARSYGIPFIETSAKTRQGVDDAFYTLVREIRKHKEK
# Procedure: as §2
# [6] = target: KRas G12R (Homo sapiens, UniProt P01116, G12R); assay: biochemical;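 also: TR-FRET displacement assay of compound binding to KRas, read after one hour at room temperature, potency from a four-parameter fit of percent-of-control values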
# Sequence of KRas G12R (P01116 1-169 isoform P01116-2 G12R): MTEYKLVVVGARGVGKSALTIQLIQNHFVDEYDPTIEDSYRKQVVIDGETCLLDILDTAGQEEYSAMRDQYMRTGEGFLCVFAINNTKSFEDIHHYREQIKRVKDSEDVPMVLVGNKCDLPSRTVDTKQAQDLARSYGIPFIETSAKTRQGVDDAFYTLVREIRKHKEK
# Procedure: as §2
# [7] = tested on: pERK in MKN1 cells; assay: Inhibition of KRas phosphorylation of ERK (Cisbio HTRF pERK assay); conditions: Homo sapiens, MKN-1, 3 h, read-out: Inhibition (HTRF IC50) of KRas-mediated Phosphorylation of ERK, MKN1
# [8] = tested on: pERK in PSN1 cells; assay: as above; conditions: Homo sapiens, PSN1, 3 h, read-out: Inhibition (HTRF IC50) of KRas-mediated Phosphorylation of ERK, PSN1
# [9] = tested on: pERK in ASPC1 cells; assay: as above; conditions: Homo sapiens, ASPC1, read-out: Inhibition (HTRF IC50) of KRas-mediated Phosphorylation of ERK, AsPC-1
# [10] = tested on: pERK in H727 cells; assay: as above; conditions: Homo sapiens, NCI-H727, read-out: Inhibition (HTRF IC50) of KRas-mediated Phosphorylation of ERK, H727
# [11] = tested on: pERK in H460 cells; assay: as above; conditions: Homo sapiens, NCI-H460, read-out: Inhibition (HTRF IC50) of KRas-mediated Phosphorylation of ERK, H460
# [12] = tested on: pERK in HCT116 cells; assay: as above; conditions: Homo sapiens, HCT-116, read-out: Inhibition (HTRF IC50) of KRas-mediated Phosphorylation of ERK, HCT116
# [13] = tested on: pERK in H358 cells; assay: as above; conditions: Homo sapiens, NCI-H358, read-out: Inhibition (HTRF IC50) of KRas-mediated Phosphorylation of ERK, H358
# [14] = target: KRas G12A (Homo sapiens, UniProt P01116, G12A); assay: biochemical;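 also: binding to KRas measured by TR-FRET displacement after one hour at room temperature, IC50 from a four-parameter fit of percent-of-control values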
# Sequence of KRas G12A (P01116 1-169 isoform P01116-2 G12A): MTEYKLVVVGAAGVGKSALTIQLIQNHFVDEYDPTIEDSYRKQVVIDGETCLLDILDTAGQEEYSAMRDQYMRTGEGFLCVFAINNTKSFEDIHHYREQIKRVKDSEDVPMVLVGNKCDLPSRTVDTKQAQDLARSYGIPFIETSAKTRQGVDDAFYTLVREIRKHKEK
# Procedure: as §2
# [15] = target: KRas G12S (Homo sapiens, UniProt P01116, G12S); assay: biochemical;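 also: TR-FRET displacement binding to KRas, read after one hour incubation at room temperature, IC50 from four-parameter fit of percent of control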
# Sequence of KRas G12S (P01116 1-169 isoform P01116-2 G12S): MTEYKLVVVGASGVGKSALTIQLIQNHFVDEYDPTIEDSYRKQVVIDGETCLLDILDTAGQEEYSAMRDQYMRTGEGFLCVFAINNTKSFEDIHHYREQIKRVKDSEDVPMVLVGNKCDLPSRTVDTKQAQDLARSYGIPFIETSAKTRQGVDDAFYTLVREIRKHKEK
# Procedure: as §2
# [16] = target: KRas G12C (Homo sapiens, UniProt P01116, G12C); assay: biochemical;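 also: binding to KRas assessed by TR-FRET displacement after one hour incubation at room temperature, potency fitted from percent-of-control values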
# Sequence of KRas G12C (P01116 1-169 isoform P01116-2 G12C): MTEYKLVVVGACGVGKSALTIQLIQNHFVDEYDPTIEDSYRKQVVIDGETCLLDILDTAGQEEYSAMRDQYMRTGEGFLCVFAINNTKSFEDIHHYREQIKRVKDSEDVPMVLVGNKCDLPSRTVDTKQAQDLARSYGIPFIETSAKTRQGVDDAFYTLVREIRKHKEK
# Procedure: as §2
# [17] = target: KRas WT (Homo sapiens, UniProt P01116); assay: biochemical;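 also: binding to KRas read as TR-FRET displacement after a one-hour room-temperature incubation, IC50 derived from percent-of-control values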
# Sequence of KRas WT (P01116 1-169 isoform P01116-2): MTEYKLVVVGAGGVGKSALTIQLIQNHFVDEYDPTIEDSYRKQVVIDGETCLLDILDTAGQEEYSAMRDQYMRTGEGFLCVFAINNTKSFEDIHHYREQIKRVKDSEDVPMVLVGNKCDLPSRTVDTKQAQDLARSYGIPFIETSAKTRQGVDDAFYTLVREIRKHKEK
# Procedure: as §2
IC50 [4],IC50 [5],IC50 [6],IC50 [7],IC50 [8],IC50 [9],IC50 [10],IC50 [11],IC50 [12],IC50 [13],IC50 [14],IC50 [15],IC50 [16],IC50 [17],SMILES,IC50 [1],IC50 [2],IC50 [3]
9 nM,≤ 2 nM,≤ 2 nM,41 nM,≥ 10 µM,96 nM,26 nM,32 nM,170 nM,6 nM,,,,,"CCc1c(F)ccc2cc(O)cc(-c3ncc4c(N5CC(c6ccncc6)C5)nc(OC[C@@]56CCCN5C[C@H](F)C6)nc4c3F)c12 [Example 172, 5-ethyl-6-fluoro-4-(8-fluoro-2-(((2R,7aS)-2-fluorohexahydro-1H-pyrrolizin-7a-yl)methoxy)-4-(3-(pyridin-4-yl)azetidin-1-yl)pyrido[4,3-d]pyrimidin-7-yl)naphthalen-2-ol]",481 nM,79 nM,192 nM
6 nM,4 nM,6 nM,42 nM,5.54 µM,56 nM,263 nM,176 nM,454 nM,95 nM,,,,,CCc1c(F)ccc2cc(O)cc(-c3ncc4c(N5CCCC(C#N)CC5)nc(OC[C@@]56CCCN5C[C@H](F)C6)nc4c3F)c12 (stereo partly drawn) [Example 173],180 nM,145 nM,304 nM
≤ 2 nM,≤ 2 nM,≤ 2 nM,39 nM,0.314 µM,97 nM,167 nM,33 nM,114 nM,31 nM,,,,,CCc1c(F)ccc2cc(O)cc(-c3ncc4c(N5CCCC6(C5)NC(=O)NC6=O)nc(OC[C@@]56CCCN5C[C@H](F)C6)nc4c3F)c12 (stereo partly drawn) [Example 196],361 nM,48 nM,452 nM
≤ 2 nM,≤ 2 nM,≤ 2 nM,17 nM,5.15 µM,49 nM,45 nM,61 nM,56 nM,164 nM,≤ 2 nM,≤ 2 nM,≤ 2 nM,≤ 2 nM,"CCc1c(F)ccc2cc(O)cc(-c3ncc4c(N5CCCCCCC5)nc(OC[C@@]56CCCN5C[C@H](F)C6)nc4c3F)c12 [Example 325, 4-(4-(azocan-1-yl)-8-fluoro-2-(((2R,7aS)-2-fluorohexahydro-1H-pyrrolizin-7a-yl)methoxy)pyrido[4,3-d]pyrimidin-7-yl)-5-ethyl-6-fluoronaphthalen-2-ol]",,,
5 nM,≤ 2 nM,≤ 2 nM,2 nM,9.19 µM,49 nM,62 nM,54 nM,140 nM,19 nM,,,,,"CCc1c(F)ccc2cc(O)cc(-c3ncc4c(N5C[C@@H]6C[C@H](C5)[C@H](O)C6)nc(OCC5(CN(C)C)CC5)nc4c3F)c12 [Example 360, (1R,5R,6R)-3-(2-((1-((dimethylamino)methyl)cyclopropyl)methoxy)-7-(8-ethyl-7-fluoro-3-hydroxynaphthalen-1-yl)-8-fluoropyrido[4,3-d]pyrimidin-4-yl)-3-azabicyclo[3,2,1]octan-6-ol]",,,
3 nM,3 nM,9 nM,11 nM,5.53 µM,60 nM,185 nM,108 nM,321 nM,61 nM,,,,,"CCc1c(F)ccc2cc(O)cc(-c3ncc4c(N5CCC[C@@](C)(O)C5)nc(OCC(C)(C)CN(C)C)nc4c3F)c12 [Example 366, (R)-1-(2-(3-(dimethylamino)-2,2-dimethylpropoxy)-7-(8-ethyl-7-fluoro-3-hydroxynaphthalen-1-yl)-8-fluoropyrido[4,3-d]pyrimidin-4-yl)-3-methylpiperidin-3-ol]",,,
≤ 2 nM,≤ 2 nM,≤ 2 nM,12 nM,3.99 µM,61 nM,74 nM,143 nM,563 nM,22 nM,,,,,"C#Cc1c(F)ccc2cc(O)cc(-c3ncc4c(N5CCOCC(CO)C5)nc(OC[C@@]56CCCN5C[C@H](F)C6)nc4c3F)c12 (stereo partly drawn) [Example 391, 5-ethynyl-6-fluoro-4-(8-fluoro-2-(((2R,7aS)-2-fluorohexahydro-1H-pyrrolizin-7a-yl)methoxy)-4-(6-(hydroxymethyl)-1,4-oxazepan-4-yl)pyrido[4,3-d]pyrimidin-7-yl)naphthalen-2-ol]",,,
≤ 2 nM,≤ 2 nM,≤ 2 nM,40 nM,0.146 µM,63 nM,83 nM,48 nM,92 nM,9 nM,,,,,"O=S1(=O)NCC2(CCCN(c3nc(OC[C@@]45CCCN4C[C@H](F)C5)nc4c(F)c(-c5cc(O)cc6ccc(F)c(Br)c56)ncc34)C2)N1 (stereo partly drawn) [Example 411, 7-(7-(8-bromo-7-fluoro-3-hydroxynaphthalen-1-yl)-8-fluoro-2-(((2R,7aS)-2-fluorohexahydro-1H-pyrrolizin-7a-yl)methoxy)pyrido[4,3-d]pyrimidin-4-yl)-2-thia-1,3,7-triazaspiro[4.5]decane 2,2-dioxide]",,,
3 nM,3 nM,8 nM,14 nM,3.48 µM,71 nM,154 nM,182 nM,319 nM,58 nM,,,,,"CC1(O)COCCN(c2nc(OC[C@@]34CCCN3C[C@H](F)C4)nc3c(F)c(-c4cc(O)cc5ccc(F)c(Cl)c45)ncc23)C1 (stereo partly drawn) [Example 419, 4-(7-(8-chloro-7-fluoro-3-hydroxynaphthalen-1-yl)-8-fluoro-2-(((2R,7aS)-2-fluorohexahydro-1H-pyrrolizin-7a-yl)methoxy)pyrido[4,3-d]pyrimidin-4-yl)-6-methyl-1,4-oxazepan-6-ol]",,,
6 nM,16 nM,18 nM,80 nM,9.29 µM,89 nM,406 nM,414 nM,1070 nM,231 nM,,,,,"CCc1cccc2cc(O)c(F)c(-c3ncc4c(N5CCC[C@@](C)(O)C5)nc(OC[C@@]56CCCN5C[C@H](F)C6)nc4c3F)c12 [Example 472, (3R)-1-(7-(8-ethyl-2-fluoro-3-hydroxynaphthalen-1-yl)-8-fluoro-2-(((2R,7aS)-2-fluorohexahydro-1H-pyrrolizin-7a-yl)methoxy)pyrido[4,3-d]pyrimidin-4-yl)-3-methylpiperidin-3-ol]",,,
≤ 2 nM,≤ 2 nM,4 nM,14 nM,3.59 µM,36 nM,148 nM,99 nM,275 nM,35 nM,,,,,"CCc1c(F)ccc2cc(O)cc(-c3ncc4c(N5CCCC6(CCSC6)C5)nc(OC[C@@]56CCCN5C[C@H](F)C6)nc4c3F)c12 (stereo partly drawn) [Example 476, 5-ethyl-6-fluoro-4-(8-fluoro-2-(((2R,7aS)-2-fluorotetrahydro-1H-pyrrolizin-7a(5H)-yl)methoxy)-4-(2-thia-7-azaspiro[4.5]decan-7-yl)pyrido[4,3-d]pyrimidin-7-yl)naphthalen-2-ol]",,,
